Patent US20180193294A1, “Dehydroabietic acid (DHAA) derivatives for use as ion channel openers” (priority 2015, published 2018)

Target: 3R Shaker K channel (Drosophila melanogaster, UniProt P08510, A359R/M356R)
Assay: G(V) shift of 3R Shaker K channel stably expressed in CHO-K1 cells, whole-cell patch clamp
Format: cell-based
Conditions: 10 μM, pH 7.4
Text: All animal experiments were approved by the local Animal Care and Use Committee and followed international guidelines. A modified Shaker H4 channel^30, with removed N-type inactivation (ShH4IR)^31, here called the wild type (WT) channel, was expressed in oocytes. In addition, a modified 3R Shaker K channel where two introduced positive charged arginines (M356R and A359R) in addition to one native arginine (R362) makes the channel more sensitive to DHA^16, was expressed in oocytes and in a CHO—K1 stable cell line.
For the modified 3R Shaker K channel a stable cell line was generated. The construct was cloned into the pcDNA3 vector. CHO—K1 cells were plated into T75 culture flasks and grown without penicillin/streptomycin. […]
where IK is the average current from the steady-state phase at the end of each 100-ms pulse, V is the membrane voltage, and Vrev is the reversal potential for K^+, (set to −80 mV for the oocytes, and calculated to be −89 mV for the CHO—K1 cells).
where A is amplitude of the curve, V is the absolute membrane voltage, V1/2 is the midpoint, s is the slope and n is an exponent set to 4^17. The compound-induced G(V) shift was determined at the 10% level of the maximum conductance in control solution^17. The compound-induced G(V) shift in CHO—K1 was quantified by subtracting the control V1/2 from the compound V1/2 when n was set to 1.

Sequence of 3R Shaker K channel (P08510 whole entry M356R/A359R): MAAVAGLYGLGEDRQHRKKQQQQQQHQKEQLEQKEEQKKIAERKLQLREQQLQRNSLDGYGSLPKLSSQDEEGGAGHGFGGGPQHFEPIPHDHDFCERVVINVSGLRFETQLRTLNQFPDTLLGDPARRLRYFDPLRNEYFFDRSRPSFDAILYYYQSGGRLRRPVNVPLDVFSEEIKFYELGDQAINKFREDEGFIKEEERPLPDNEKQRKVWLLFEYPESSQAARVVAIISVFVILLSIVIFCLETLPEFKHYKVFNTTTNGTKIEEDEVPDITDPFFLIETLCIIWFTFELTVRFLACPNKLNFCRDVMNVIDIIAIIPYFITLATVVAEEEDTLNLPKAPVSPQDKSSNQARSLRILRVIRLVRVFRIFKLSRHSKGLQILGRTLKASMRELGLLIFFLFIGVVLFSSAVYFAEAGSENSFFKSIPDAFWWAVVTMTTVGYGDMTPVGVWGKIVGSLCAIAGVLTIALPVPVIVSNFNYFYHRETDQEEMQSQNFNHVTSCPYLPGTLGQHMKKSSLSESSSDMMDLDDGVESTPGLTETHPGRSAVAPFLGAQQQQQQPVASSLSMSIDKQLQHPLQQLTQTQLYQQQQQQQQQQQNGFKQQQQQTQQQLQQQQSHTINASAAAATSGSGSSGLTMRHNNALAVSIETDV

CC(C)c1ccc2c(c1)C(C(=O)O)CC1[C@](C)(C(=O)O)CCC[C@]21C (stereo partly shown) [Wu35]
G(V) shift in CHO cells: very poor shifter
